{"source": "paper PMC2908543", "about": "“Uropathogenic Escherichia coli Modulates Immune Responses and Its Curli Fimbriae Interact with the Antimicrobial Peptide LL-37” (PLoS Pathogens, 2010)", "key": {"[1]": {"system": "E. coli strain No. 12 and isogenic mutants", "type": "cell-based, Escherichia coli", "conditions": "for IC50: initially grown in biofilm (LB plates without salt), 10^5 CFU/ml, 0.6 µM to 20 µM peptide in 2-fold dilutions, LB broth without salt, 20 h, Alamar blue 570 nm, two experiments in triplicates, read-out: IC50 (concentration at which bacterial growth was inhibited to 50%)", "protocol": "For further investigation, E. coli isolate No. 12 from a child with pyelonephritis was chosen. This was a typical isolate expressing both curli and cellulose as well as type 1 fimbriae and yielding an approximately median level of biofilm as measured on microtiter plates. One-step knockout of bcsA and csgBA was carried out according to the protocol of Datsenko and Wanner with modifications, [50]. The following mutants were constructed using oligos listed in Table 1; WE1 bcsA::Cm, deficient in cellulose production; WE11 csgBA::Cm, deficient in curli production; and WE16 csgBA bscA::Cm, deficient in both cellulose and curli production. Expression of curli and cellulose in strain No. 12 was confirmed by these knockouts. Production of type 1 fimbriae under the culture conditions used for experiments was confirmed by yeast agglutination (see below).\nThe susceptibility of wild-type and mutant E. coli strains to synthetic LL-37 and mCRAMP (Innovagen AB, Lund, Sweden) was determined using a broth microdilution method. Briefly, bacteria were grown overnight at 37°C on LB plates with or without salt, inhibiting or promoting the formation of biofilm, respectively. Then, bacteria were suspended in PBS and diluted in LB broth without salt in a concentration of 10^5 CFU/ml. The bacterial concentration was verified by viable count after serial dilutions in PBS. Bacteria (90 µl suspension) were grown in 96-well plates in the presence of 10 µl aqueous solution of synthetic LL-37 or mCRAMP in final concentrations ranging from 0.6 µM to 20 µM in 2-fold dilutions. After 20 h, bacterial viability was measured colorimetrically by reduction of Alamar blue (BioSource International, Camarillo, CA, USA) for 1 h at 37°C [57]. The IC50 was determined as the peptide concentration that gave 50% reduction of the absorbance at 570 nm relative to bacteria grown without peptide."}, "[2]": {"system": "recombinant polymerized CsgA", "assay": "Precipitation of LL-37 with polymerized CsgA, Western blot of supernatant", "type": "binding, Escherichia coli", "conditions": "0.1 µM LL-37 in PBS with 5 µM recombinant polymerized CsgA, 1 h at 37°C", "protocol": "(§1) CsgA-His6 and CsgG, a lipoprotein that is required for CsgA secretion, were overexpressed in LSR12 (C600::csg). The purification procedure of recombinant CsgA-His6 was performed as previously described with some modifications. The filtrate was incubated with nickel-nitrilotriacetic acid (Ni-NTA) agarose (Invitrogen) for 1 h at 4°C with shaking, centrifuged at 200×g for 5 min and transferred to a polyprep chromatography column (Bio-Rad, Hercules, CA, USA). To confirm protein identity of CsgA-His6, the isolated protein was prepared and subjected to SDS-PAGE as described below, and thereafter the protein was transferred from the gel to a polyvinylidene fluoride (PVDF) membrane (Invitrogen) at 160 mA for 60 min. The band of 15 kDa, corresponding to the molecular weight of CsgA-His6, was excised from the membrane stained with Coomassie Blue and analysed with N-terminal sequence analysis as has been described. Since it has previously been shown that CsgA-His6 has the same polymerizing properties as wild-type CsgA [59], we refer to CsgA-His6 as CsgA.\nLL-37 (0.1 µM in PBS) was mixed with 5 µM wild-type curli, or 5 µM recombinant polymerized CsgA. As control, the same concentration of LL-37 without curli or CsgA was utilized. […] An aliquot of the supernatants was analyzed for the presence of LL-37 with Western blot. […]"}, "[3]": {"system": "CsgA fiber formation", "assay": "CsgA fiber formation, Thioflavin T, confocal microscopy", "type": "biochemical, Escherichia coli", "protocol": "as §1\nRecombinant monomeric CsgA was mixed with equimolar LL-37, sLL-37 or VIP and 20 µM ThT, and incubated over night at 37°C, washed twice, and suspended in 10 mM Kpi, pH 7.2 before mounting in ProLong Gold antifade mounting medium (Invitrogen). Images were acquired on a Leica TCS SP5 confocal microscope using a 20× objective. Fluorescence intensity was quantified using ImageJ software. The difference in fluorescence intensity of CsgA with and without peptides was calculated and corrected for the contribution of fluorescence from the peptides themselves."}, "[4]": {"target": "T1, monomeric CsgA (Escherichia coli, UniProt P28307)", "T1 construct": "made in house; host or cells: E. coli LSR12 (C600::csg), co-expressed with CsgG", "T1 sequence (P28307 21-151)": "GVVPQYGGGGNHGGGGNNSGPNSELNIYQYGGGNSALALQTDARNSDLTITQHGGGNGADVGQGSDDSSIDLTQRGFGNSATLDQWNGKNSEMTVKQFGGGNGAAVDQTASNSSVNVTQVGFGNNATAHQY", "assay": "CsgA monomer stability, SDS-PAGE", "type": "biochemical", "conditions": "10 µM CsgA, 20 h at 37°C, Coomassie Blue, seen already at molar ratio 16∶1 (CsgA∶LL-37)", "protocol": "To confirm the inhibition of CsgA polymerization we sought to analyse the stability of the CsgA monomer in the absence and presence of LL-37. Freshly purified, monomeric CsgA (10 µM) was incubated for 20 h at 37°C without or with different concentrations of LL-37 and was subsequently separated by SDS-PAGE. After staining with Coomassie Blue, bands corresponding to LL-37 and/or CsgA in monomeric, dimeric or tetrameric form were visualized. When CsgA was incubated alone, monomers were not visible although sometimes dimers and/or tetramers could be observed. This finding indicates spontaneous formation of CsgA oligomers and/or larger polymers that can not migrate into the gel due to their size. […] This was already seen at a molar ratio of 16∶1 (CsgA∶LL-37). To exclude degradation of CsgA as a possible explanation for the lack of the gel band, polymerized CsgA was treated with 90% formic acid, dissolving polymeric CsgA into monomers. After this treatment, a band corresponding to monomeric CsgA was detectable in the gel (Figure 8A).\nSamples were prepared in LDS (lithium dodecyl sulphate) sample buffer (4∶1) and incubated at 70°C for 10 min. Electrophoresis was performed using 4–12% Bis-tris NU-PAGE gels (Invitrogen) at 200 V for 35 min. Gels were stained with Coomassie Blue for 1 h and destained over night in 90% water, 8% methanol and 2% acetic acid (vol/vol/vol)."}, "[5]": {"system": "Pseudomonas aeruginosa", "conditions": "ref [46]; cited from earlier work", "text": "Biofilm inhibition by antimicrobial polypeptides has previously been described for Pseudomonas aeruginosa. […] A direct interaction with biofilm components was not investigated in these studies. The effect was rather related to an influence of LL-37 on the bacterial gene expression profile or an influence of lactoferrin on free iron. These and our findings stress an important anti-biofilm role of antimicrobial polypeptides in host defense. It is likely that the anti-biofilm activit ..."}}, "note": "Entries after “also recorded” stand apart in the source; their conditions may differ. Like-named read-outs stand apart in the source and are kept apart here."}
{"compound": "CC[C@H](C)[C@H](NC(=O)[C@H](CCCCN)NC(=O)[C@H](CCC(=O)O)NC(=O)[C@H](CCCCN)NC(=O)[C@H](CO)NC(=O)[C@H](CCCCN)NC(=O)[C@H](CCCNC(=N)N)NC(=O)[C@H](Cc1ccccc1)NC(=O)[C@H](Cc1ccccc1)NC(=O)[C@H](CC(=O)O)NC(=O)CNC(=O)[C@H](CC(C)C)NC(=O)[C@@H](N)CC(C)C)C(=O)NCC(=O)N[C@@H](CCCCN)C(=O)N[C@@H](CCC(=O)O)C(=O)N[C@@H](Cc1ccccc1)C(=O)N[C@@H](CCCCN)C(=O)N[C@@H](CCCNC(=N)N)C(=O)N[C@H](C(=O)N[C@H](C(=O)N[C@@H](CCC(N)=O)C(=O)N[C@@H](CCCNC(=N)N)C(=O)N[C@H](C(=O)N[C@@H](CCCCN)C(=O)N[C@@H](CC(=O)O)C(=O)N[C@@H](Cc1ccccc1)C(=O)N[C@@H](CC(C)C)C(=O)N[C@@H](CCCNC(=N)N)C(=O)N[C@@H](CC(N)=O)C(=O)N[C@@H](CC(C)C)C(=O)N[C@H](C(=O)N1CCC[C@H]1C(=O)N[C@@H](CCCNC(=N)N)C(=O)N[C@H](C(=O)N[C@@H](CCC(=O)O)C(=O)N[C@@H](CO)C(=O)O)[C@@H](C)O)C(C)C)[C@@H](C)CC)C(C)C)[C@@H](C)CC", "note": "[LL-37]", "values": [{"measurement": "difference in resistance between the strains", "setting": "[1]; bacteria pre-grown planktonically, curli expression suppressed (data not shown)", "result": "no significant difference in the resistance"}, {"measurement": "IC50", "setting": "[1]; curliated strains", "result": 12, "unit": "µM"}, {"measurement": "IC50", "setting": "[1]; non-curliated strains", "result": "6 to 7", "unit": "µM"}, {"measurement": "LL-37 in supernatants after precipitation", "setting": "[2]", "result": "pronounced decrease of LL-37 in supernatants; also recorded: the levels of LL-37 decreased in the supernatants"}, {"measurement": "fluorescence relative to CsgA alone", "setting": "[3]; CsgA with equimolar peptide (1∶1), 20 µM ThT, 20 h at 37°C, CsgA alone = 1 arbitrary unit, corrected for peptide fluorescence, two experiments", "result": 0.05, "unit": "arbitrary units"}, {"measurement": "inhibition of CsgA fiber formation versus sLL-37 and VIP", "setting": "[3]; molar ratio 1∶1, P = 0.007 versus sLL-37 and P = 0.011 versus VIP", "result": "significantly stronger than the effect of sLL-37; also recorded: evidently stronger for LL-37"}, {"measurement": "CsgA monomer band at 15 kDa in presence of LL-37", "setting": "[4]", "result": "a band migrating at 15 kDa, the predicted size of monomeric CsgA, could be observed; also recorded: the CsgA monomer is visible after SDS-PAGE"}, {"measurement": "bacterial surface motility mediated by type IV pili", "setting": "[5]", "result": "increased bacterial surface motility"}]}
